Experimental findings from patent US5808065A, “Pyridazinone derivatives and processes for preparing the same” (Tanabe Seiyaku Co., Ltd., priority 1995, dated 1998) are described below.

The nature of data set [1]: Antinephritic Action (protein excretion inhibition in nephritis induced with nephrotoxic serum (NTS)). Format: in vivo, male WKY rats. The conditions noted are these: 30 mg/kg/10 ml orally twice a day for 8 days; urine collected for 24 hours on the seventh day; 6 rats per group. How it is done:
Rabbits were immunized several times with an adjuvant and a renal glomerular basement membrane fraction obtained from WKY rats, and then whole blood was collected from the rabbits to obtain a nephrotoxic serum (NTS). This NTS was diluted by 50 times with physiological saline, and to male WKY rats of 8 weeks old, 2.5 ml of the diluted NTS per 1 kg of body weight was injected intravenously to induce nephritis. To a normal group, the same amount of physiological saline was administered intravenously. One experimental group consisted of 6 rats. Each compound to be tested was suspended in purified water by using a small amount of Tween 80 (trade name, produced by Nacalai Tesque Co.), and a dose of 30 mg/kg/10 ml was orally administered twice a day for continuous 8 days. To a normal group and a control group, the same amount of purified water was administered orally. On the seventh day, the rats were placed in a metabolic cage, and urine was collected for 24 hours. By measuring the concentrations of protein in urine by the sulfosalicylic acid method, the amounts of excreted protein (mg/day) were determined, and protein excretion-inhibiting rates were calculated by the following equation. [formula]

Data set [2] can be described thus: Side Effect to Circulatory System (normal awakened rats, tail-cuff method). The format is in vivo. The conditions noted are these: 30 mg/kg/10 ml orally, before and 2 hours after administration. As to the method: One experimental group consisted of 4 rats. Each compound to be tested was suspended in purified water by using a small amount of Tween 80 (trade name, produced by Nacalai Tesque Co.), and a dose of 30 mg/kg/10 ml was administered orally to normal awakened rats. Systolic blood pressures and heart rates before administration and 2 hours after administration were examined. The systolic blood pressures and the heart rates were measured by the tail-cuff method (KN-210, trade name, produced by Natsume Seisakusho) under conditions of pretreatment at 40° C. for 15 minutes.
According to the following equations, the respective changing rates were calculated. [formula]

Data set [3] has as its system mice. Briefly: Toxicity (death of mice observed for 3 days). The format is in vivo. The text has this:
The desired compound (I) of the present invention has low toxicity.

As to `O=C(NCCCCc1ccc(-c2ccc(=O)[nH]n2)cc1)c1cccnc1` [Example 30, 6-[4-(4-(pyridin-3-ylcarbonylamino)butyl)phenyl]pyridazin-3(2H)-one], the “Inhibition rate (protein excretion-inhibiting rate)” value (shortened to “Inhibition rate”) in data set [1] was determined as 82.5%. Also, in data set [2], the Heart rate-changing rate was 3 Δ% and the “Systolic blood pressure-changing rate” value was -2 Δ%.

Turning to `Nc1ncccc1C(=O)NCCCCc1ccc(-c2ccc(=O)[nH]n2)cc1` [Example 70], the “Inhibition rate” value in data set [1] came out at 74.1%.

With `CC1CC(=O)NN=C1c1ccc(CCNC(=O)c2cccnc2)cc1` (stereo not drawn) [Known compound, 5-methyl-6-(4-[2-(pyridin-3-ylcarbonylamino)ethyl]phenyl)-4,5-dihydropyridazin-3 (2H)-one, reference compound], in data set [2], the Heart rate-changing rate is recorded as 18 Δ% and the “Systolic blood pressure-changing rate” value is on record as -7 Δ%.

On to `O=C(NCCCOc1ccc(-c2ccc(=O)[nH]n2)cc1)c1cccnc1` [Example 36, 6-[4-(3-(pyridin-3-ylcarbonylamino)propoxy)phenyl]pyridazin-3(2H)-one], for which the “Inhibition rate” value in data set [1] is on record as 89.0%. Moreover, in data set [2], the Heart rate-changing rate is given as 1 Δ% and the “Systolic blood pressure-changing rate” value is listed as 0 Δ%.

Take `O=C(NCCCc1ccc(-c2ccc(=O)[nH]n2)cc1)c1cccnc1` [Example 31]: in data set [2], the Heart rate-changing rate was 7 Δ% and the “Systolic blood pressure-changing rate” value is reported as 0 Δ%.

Consider `C=CS(=O)(=O)NCCCc1ccc(-c2ccc(=O)[nH]n2)cc1` [Example 52-(4), 6-[4-(3-vinylsulfonylaminopropyl)phenyl]-pyridazin-3(2H)-one], for which the “Inhibition rate” value in data set [1] stood at 74.6%.

Consider `Cc1ncccc1C(=O)NCCCCc1ccc(-c2ccc(=O)[nH]n2)cc1` [Example 32], for which the “Inhibition rate” value in data set [1] came out at 64.3%. In data set [2], the Heart rate-changing rate was 5 Δ% and the “Systolic blood pressure-changing rate” value is listed as -2 Δ%.

Turning to `Cl.O=C(NCCCCc1ccc(-c2ccc(=O)[nH]n2)cc1)c1cccnc1` [Example 69, 6-[4-(4-(pyridin-3-ylcarbonylamino)butyl)phenyl]pyridazin-3(2H)-one hydrochloride], the death entry is listed as “no case of death was observed” in data set [3] (mouse, in vivo, ip, 300 mg/kg) and “no case of death was observed” in data set [3] (orally, 1,000 mg/kg, observed for 3 days). Moreover, the “Inhibition rate” value in data set [1] is 82.2%.

As for `Nc1ncccc1C(=O)NCCCCc1ccc(-c2ccc(=O)[nH]n2)cc1` [Example 33], the “Inhibition rate” value in data set [1] turned out to be 85.7%. In data set [2], the Heart rate-changing rate was 2 Δ% and the “Systolic blood pressure-changing rate” value is on record as 1 Δ%.
